According to US20070207989A1, “DITERPENE DERIVATIVES FOR THE TREATMENT OF CARDIOVASCULAR, CANCER AND INFLAMMATORY DISEASES” (SaviPu Pharmaceuticals, priority 2006, published 2007):

Assays:
[1] = test system: endothelin receptor; conditions: cited from earlier work
[2] = test system: tumor cell lines; experiment: inhibition of tumor cell lines; assay type: cell-based
[3] = molecular target: T1, endothelin receptor A (ETA) (Homo sapiens, UniProt P25101); experiment: inhibition of endothelin receptor A (ETA)
T1 sequence (P25101 21-427): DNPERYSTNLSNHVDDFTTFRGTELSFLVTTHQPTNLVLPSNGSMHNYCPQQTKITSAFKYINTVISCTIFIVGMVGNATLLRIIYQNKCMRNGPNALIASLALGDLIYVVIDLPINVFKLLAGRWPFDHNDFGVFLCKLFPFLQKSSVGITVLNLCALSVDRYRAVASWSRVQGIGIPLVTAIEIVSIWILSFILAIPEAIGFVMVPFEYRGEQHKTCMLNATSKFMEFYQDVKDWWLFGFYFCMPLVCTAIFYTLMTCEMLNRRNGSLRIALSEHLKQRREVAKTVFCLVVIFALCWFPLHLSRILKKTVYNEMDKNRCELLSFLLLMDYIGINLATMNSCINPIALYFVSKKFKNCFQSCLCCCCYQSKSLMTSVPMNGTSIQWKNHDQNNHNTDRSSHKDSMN

[4] = test system: NF-κB; conditions: cited from earlier work
[5] = test system: carcinoma cell lines; conditions: four cell lines; cited from earlier work
[6] = test system: NF-κB; experiment: inhibition of NF-κB / NF-κB binding to κB consensus DNA
[7] = molecular target: T2, ETB receptor (Homo sapiens, UniProt P24530); conditions: cited from earlier work
T2 sequence (P24530 27-442): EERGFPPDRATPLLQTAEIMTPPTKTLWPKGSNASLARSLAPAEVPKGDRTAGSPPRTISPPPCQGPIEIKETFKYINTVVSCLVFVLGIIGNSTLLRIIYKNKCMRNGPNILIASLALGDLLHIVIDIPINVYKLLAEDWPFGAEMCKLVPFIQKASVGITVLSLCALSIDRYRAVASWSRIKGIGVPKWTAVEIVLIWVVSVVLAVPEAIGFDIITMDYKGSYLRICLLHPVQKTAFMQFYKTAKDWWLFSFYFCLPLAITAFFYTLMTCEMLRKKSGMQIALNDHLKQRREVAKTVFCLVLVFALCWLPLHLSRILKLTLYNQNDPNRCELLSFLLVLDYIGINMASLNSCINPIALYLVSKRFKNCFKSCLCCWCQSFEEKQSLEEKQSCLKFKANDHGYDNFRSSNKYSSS

[8] = molecular target: T3, ETA receptor (Homo sapiens, UniProt P25101); conditions: cited from earlier work
T3 sequence (P25101 21-427): T1 sequence (P25101 21-427)

[9] = test system: human cancer cell lines; conditions: cited from earlier work

## COc1cccc(Oc2c(NS(=O)(=O)c3ccc(C(C)(C)C)cc3)ncnc2OCCO)c1 [Ro-46-2005]
[1]
  endothelin receptor antagonist activity / binding (in words): orally active non-peptidic antagonist

## Cc1coc2c1C(=O)C(=O)c1c-2ccc2c1CCCC2(C)C [compound 8, tanshinone IIA]
[2]
  inhibition of tumor cell lines: modest inhibition
[3]
  inhibition of endothelin receptor A (ETA): modest inhibition
[4]
  blocking of NFκB binding to κB consensus DNA: block NFκB from binding to κB consensus DNA
[5]
  potency against carcinoma cell lines (in words): lack significant activity
[6]
  inhibition of NF-κB: modest inhibition

## Cc1noc(NS(=O)(=O)c2cccc3c(N(C)C)cccc23)c1C [BMS-1 82874]
[1]
  endothelin receptor antagonist activity / binding (in words): active

## C=C1CCCc2c1ccc1c2C(=O)C(=O)c2c(C)coc2-1 [compound 9, methylene tanshinquinone]
[5]
  potency against carcinoma cell lines (in words): more potent than any of the tanshindiols

## COC(=O)[C@@]1(C)CCCc2c1ccc1c2C(=O)C(=O)c2c(C)coc2-1 [compound 10, methyl tanshinonate]
[5]
  potency against carcinoma cell lines (in words): equally potent as the tanshindiols

## COc1cc(OC)nc(O[C@H](C(=O)O)C(OC)(c2ccccc2)c2ccccc2)n1 [darusentan]
[1]
  endothelin receptor antagonist activity / binding (in words): effective endothelin receptor antagonists

## Cc1coc2c1C(=O)C(=O)c1c-2ccc2c1CCCC2(C)CO (centres unmarked) [compound 11, tanshinone IIB]
[5]
  potency against carcinoma cell lines (in words): very little activity

## CCCOc1ccc2c(c1)[C@@H](c1ccc(OC)cc1OCC(=O)O)[C@H](C(=O)O)[C@H]2c1ccc2c(c1)OCO2 [SB-209670]
[7]
  affinity for ETB receptor (concentration range in words): nanomolar
[8]
  affinity for ETA receptor (concentration range in words): subnanomolar

## Cc1cccc2c1ccc1c3occ(C)c3c(=O)oc21 [compound 20, neo-tanshinlactone]
[9]; breast cancer, in some cases
  potency relative to tamoxifen citrate: ten times more potent
  selectivity relative to tamoxifen citrate: twenty times more selective
[9]; several human cancer cell lines, particularly breast cancer
  effectiveness against human cancer cell lines: very effective

## Cc1coc2c1C(=O)C(=O)c1c-2ccc2c(C)cccc12 [tanshinone 17]
[5]
  potency against carcinoma cell lines (in words): lack significant activity
